{"source": "patent US20070173538A1", "about": "(Alcon, Inc., priority 2005, published 2007)", "key": {"FGFR": {"system": "FGFR", "experiment": "Cell-free enzymatic kinase inhibition assay, FGFR", "format": "biochemical", "details": "1 mM ATP"}, "[1]": {"experiment": "Dissolution of compound in molten PEG", "format": "physicochemical", "details": "PEG 3350 and PEG 8000 melted at about 60° C. to 95° C.", "text": "The present inventors have discovered that certain active agents have a higher solubility in the presence of PEG than in water. […] This pellet forms a colloidal like suspension when the pellet dissolves in water. Furthermore, using blends of high and low molecular weight PEGs can make erodible gel with the compound uniformly dispersed in it (see examples). This provides an injection dosage form for delivery of insoluble compounds via posterior juxtascleral or intravitreal administration, which enhances the solubility of the compounds and achieves the desired bioavailability. In the formulations of the present invention, the compound forms a solid solution in the matrix of the PEG."}}, "data": [{"smiles": "Cc1ccc(F)c(NC(=O)Nc2ccc(-c3cccc4[nH]nc(N)c34)cc2)c1", "note": "[RTK Inhibitor, N-[4-(3-amino-1H-indazol-4-yl)phenyl]-N′-(2-fluoro-5-methylphenyl)urea]", "values": [{"measurement": "IC50", "setting": "FGFR", "value": "> 12.5", "unit": "µM"}, {"measurement": "Solubility in PEG", "setting": "[1]", "value": "dissolve completely"}]}]}
